We go through 21 compounds from US10584128B2, “Bicyclic dihydropyrimidine-carboxamide derivatives as Rho-Kinase inhibitors” (CHIESI FARMACEUTICI S.p.A., priority 2016, dated 2020).

The target in one test is Rho kinase 1 (Homo sapiens, UniProt Q13464). In words: In vitro Rho kinase inhibitory activity assay (ADP-Glo kit, Myelin Basic Protein substrate). In kind it is biochemical. The settings on record: 10 μM ATP, 25° C., read-out: ROCK1 inhibitory activity (Ki, range of activity). Here is the method:
(§1) The effectiveness of compounds of the present invention to inhibit Rho kinase activity can be determined in a 10 μl assay containing 40 mM Tris pH7.5, 20 mM MgCl2 0.1 mg/ml BSA, 50 μM DTT and 2.5 μM peptide substrate (Myelin Basic Protein) using an ADP-Glo kit (Promega). Compounds were dissolved in DMSO such that the final concentration of DMSO was 1% in the assay. All reactions/incubations are performed at 25° C. Compound (2 ul) and either Rho kinase 1 or 2 (4 μl) were mixed and incubated for 30 mins. Reactions were initiated by addition of ATP (4 μl) such that the final concentration of ATP in the assay was 10 μM. After a 1 hour incubation 10 μl of ADP-Glo Reagent was added and after a further 45 minute incubation 20 ul of Kinase Detection Buffer was added and the mixture incubated for a further 30 minutes. The luminescent signal was measured on a luminometer. […] Compounds were tested in dose-response format and the inhibition of kinase activity was calculated at each concentration of compound. To determine the IC50 (concentration of compound required to inhibit 50% of the enzyme activity) data were fit to a plot of % inhibition vs Log10 compound concentration using a sigmoidal fit with a variable slope and fixing the maximum to 100% and the minimum to 0%. To determine the Ki values the Cheng-Prusoff equation was utilized (Ki=IC50/(1+[S]/Km).

The next test addresses Rho kinase 2 (Homo sapiens, UniProt O75116). The test is described as above. In kind it is biochemical. The settings on record: 10 μM ATP, 25° C., read-out: ROCK2 inhibitory activity (Ki, range of activity). As to the method:
as §1

Rho kinase 2, sequence (O75116 whole entry): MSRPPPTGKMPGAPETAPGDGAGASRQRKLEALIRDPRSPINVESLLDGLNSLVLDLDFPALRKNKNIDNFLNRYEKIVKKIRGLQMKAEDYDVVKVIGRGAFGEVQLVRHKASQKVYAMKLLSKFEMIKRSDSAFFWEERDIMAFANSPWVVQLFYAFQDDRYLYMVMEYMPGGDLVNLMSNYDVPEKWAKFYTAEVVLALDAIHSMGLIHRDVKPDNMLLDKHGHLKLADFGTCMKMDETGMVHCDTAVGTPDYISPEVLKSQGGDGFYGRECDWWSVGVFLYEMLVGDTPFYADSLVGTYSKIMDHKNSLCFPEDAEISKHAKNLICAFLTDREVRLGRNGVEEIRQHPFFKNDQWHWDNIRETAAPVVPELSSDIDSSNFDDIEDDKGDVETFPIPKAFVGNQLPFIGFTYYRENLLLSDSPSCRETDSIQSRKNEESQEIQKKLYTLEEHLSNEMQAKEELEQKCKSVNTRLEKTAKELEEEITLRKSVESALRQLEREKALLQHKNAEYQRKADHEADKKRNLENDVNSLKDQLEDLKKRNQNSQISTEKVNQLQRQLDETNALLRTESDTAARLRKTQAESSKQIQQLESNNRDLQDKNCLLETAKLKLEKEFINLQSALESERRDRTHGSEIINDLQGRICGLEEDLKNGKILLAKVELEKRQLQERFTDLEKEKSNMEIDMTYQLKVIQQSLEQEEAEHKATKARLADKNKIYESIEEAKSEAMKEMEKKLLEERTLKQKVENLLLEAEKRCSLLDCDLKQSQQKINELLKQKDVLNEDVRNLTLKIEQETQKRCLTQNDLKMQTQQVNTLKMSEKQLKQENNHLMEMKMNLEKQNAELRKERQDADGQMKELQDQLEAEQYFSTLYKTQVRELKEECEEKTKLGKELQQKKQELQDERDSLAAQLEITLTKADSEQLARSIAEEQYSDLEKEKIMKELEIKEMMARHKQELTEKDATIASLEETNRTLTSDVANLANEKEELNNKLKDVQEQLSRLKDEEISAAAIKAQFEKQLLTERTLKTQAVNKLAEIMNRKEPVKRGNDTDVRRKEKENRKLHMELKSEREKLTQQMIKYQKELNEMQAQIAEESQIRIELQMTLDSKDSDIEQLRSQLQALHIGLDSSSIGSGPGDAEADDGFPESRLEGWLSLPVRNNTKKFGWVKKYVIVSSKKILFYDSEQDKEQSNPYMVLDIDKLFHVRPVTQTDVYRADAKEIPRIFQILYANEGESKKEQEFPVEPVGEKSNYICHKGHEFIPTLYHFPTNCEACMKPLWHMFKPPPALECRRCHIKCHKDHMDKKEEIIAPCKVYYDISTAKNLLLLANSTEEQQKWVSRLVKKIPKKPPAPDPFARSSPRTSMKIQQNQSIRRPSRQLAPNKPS
Rho kinase 1, sequence (Q13464 whole entry): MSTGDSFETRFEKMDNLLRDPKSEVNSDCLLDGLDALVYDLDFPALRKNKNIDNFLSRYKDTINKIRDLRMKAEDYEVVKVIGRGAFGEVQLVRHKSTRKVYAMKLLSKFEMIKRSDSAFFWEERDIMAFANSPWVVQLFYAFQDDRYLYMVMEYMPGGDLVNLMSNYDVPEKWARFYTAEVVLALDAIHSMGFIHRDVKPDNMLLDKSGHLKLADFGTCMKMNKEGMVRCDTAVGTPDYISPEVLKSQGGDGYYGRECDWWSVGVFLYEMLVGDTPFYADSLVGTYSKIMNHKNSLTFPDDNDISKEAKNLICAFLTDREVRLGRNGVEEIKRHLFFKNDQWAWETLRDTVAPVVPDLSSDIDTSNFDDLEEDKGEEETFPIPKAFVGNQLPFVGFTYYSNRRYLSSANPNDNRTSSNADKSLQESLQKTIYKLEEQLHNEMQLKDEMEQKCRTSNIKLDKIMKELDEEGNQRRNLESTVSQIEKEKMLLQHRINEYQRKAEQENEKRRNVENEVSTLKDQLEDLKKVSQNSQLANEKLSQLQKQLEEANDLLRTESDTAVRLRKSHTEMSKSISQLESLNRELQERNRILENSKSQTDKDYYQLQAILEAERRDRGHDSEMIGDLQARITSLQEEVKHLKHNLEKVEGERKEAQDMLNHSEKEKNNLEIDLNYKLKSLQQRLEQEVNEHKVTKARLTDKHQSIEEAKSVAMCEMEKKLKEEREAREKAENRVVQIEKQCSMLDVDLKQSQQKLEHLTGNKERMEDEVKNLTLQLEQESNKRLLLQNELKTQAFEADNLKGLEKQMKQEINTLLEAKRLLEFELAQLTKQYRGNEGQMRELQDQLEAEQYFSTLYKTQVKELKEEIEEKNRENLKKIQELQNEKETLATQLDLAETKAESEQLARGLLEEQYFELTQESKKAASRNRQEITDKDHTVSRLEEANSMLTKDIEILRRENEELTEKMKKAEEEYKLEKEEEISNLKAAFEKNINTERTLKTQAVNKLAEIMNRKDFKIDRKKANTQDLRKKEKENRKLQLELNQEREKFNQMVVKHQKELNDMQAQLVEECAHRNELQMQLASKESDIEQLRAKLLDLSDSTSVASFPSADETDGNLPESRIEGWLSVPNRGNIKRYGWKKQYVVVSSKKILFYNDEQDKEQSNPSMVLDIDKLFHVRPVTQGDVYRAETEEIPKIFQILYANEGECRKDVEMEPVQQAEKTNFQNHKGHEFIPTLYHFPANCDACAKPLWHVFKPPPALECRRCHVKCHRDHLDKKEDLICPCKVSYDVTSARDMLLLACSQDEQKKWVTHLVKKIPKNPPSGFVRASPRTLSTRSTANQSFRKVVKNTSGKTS

As to `CC1=C(C(=O)Nc2ccc3cnccc3c2)C(c2ccc(C)c(F)c2F)n2nc(CN(C)C)cc2N1` (single isomer, unassigned) [Example 121b, 7-(2,3-difluoro-4-methylphenyl)-2-((dimethylamino)methyl)-N-(isoquinolin-6-yl)-5-methyl-4,7-dihydropyrazolo[1,5-a]pyrimidine-6-carboxamide], the Ki on Rho kinase 1 and on Rho kinase 2 was < 50 nM in each case.
As to `CCOC(=O)c1cc2n(n1)C(c1ccc(C)cc1)C(C(=O)Nc1ccc3[nH]ncc3c1)=C(C)N2` (stereo not shown) [Example 3, ethyl 6-((1H-indazol-5-yl)carbamoyl)-5-methyl-7-(p-tolyl)-4,7-dihydropyrazolo[1,5-a]pyrimidine-2-carboxylate], the Ki on Rho kinase 1 and at Rho kinase 2 was < 50 nM each time.
Consider `CCOC(=O)c1cc2n(n1)C(c1ccc(Cl)cc1F)C(C(=O)Nc1ccc3[nH]ncc3c1)=C(C)N2` (single isomer, unassigned) [Example 7A, ethyl 6-((1H-indazol-5-yl)carbamoyl)-7-(4-chloro-2-fluorophenyl)-5-methyl-4,7-dihydropyrazolo[1,5-a]pyrimidine-2-carboxylate], for which the Ki at Rho kinase 1 and on Rho kinase 2 was < 50 nM in each case.
Take `CC1=C(C(=O)Nc2ccc3cnccc3c2)C(C2Cc3ccccc3C2)n2nc(CO)cc2N1` (single isomer, unassigned) [Example 60B, 7-(2,3-dihydro-1H-inden-2-yl)-2-(hydroxymethyl)-N-(isoquinolin-6-yl)-5-methyl-4,7-dihydropyrazolo[1,5-a]pyrimidine-6-carboxamide]: the Ki at Rho kinase 1 and at Rho kinase 2 was 50 to 500 nM in each case.
In the case of `CC1=C(C(=O)Nc2ccc3cnccc3c2)C(c2ccc(C)c(F)c2)n2nc(CN(C)C)cc2N1` (single isomer, unassigned) [Example 110A, 2-((dimethylamino)methyl)-7-(3-fluoro-4-methylphenyl)-N-(isoquinolin-6-yl)-5-methyl-4,7-dihydropyrazolo[1,5-a]pyrimidine-6-carboxamide], the Ki at Rho kinase 1 and on Rho kinase 2 was 50 to 500 nM each time.
For `CC1=C(C(=O)Nc2ccc3cnccc3c2)C(c2ccc(C(F)(F)F)c(F)c2)n2nc(C(=O)N3CCC(N(C)C)CC3)cc2N1` (stereo not shown) [Example 87, 2-(4-(dimethylamino)piperidine-1-carbonyl)-7-(3-fluoro-4-(trifluoromethyl)phenyl)-N-(isoquinolin-6-yl)-5-methyl-4,7-dihydropyrazolo[1,5-a]pyrimidine-6-carboxamide], the Ki on Rho kinase 1 and on Rho kinase 2 was < 50 nM throughout.
With `CC1=C(C(=O)Nc2ccc3cnccc3c2)C(c2ccc(C(F)(F)F)c(F)c2)n2nc(NC(=O)CN3CCCC3)cc2N1` (stereo not shown) [Example 132, 7-(3-fluoro-4-(trifluoromethyl)phenyl)-N-(isoquinolin-6-yl)-5-methyl-2-(2-(pyrrolidin-1-yl)acetamido)-4,7-dihydropyrazolo[1,5-a]pyrimidine-6-carboxamide], the Ki on Rho kinase 1 and on Rho kinase 2 was < 50 nM each time.
Turning to `CC1=C(C(=O)Nc2ccc3cnccc3c2)C(c2ccc(C(F)(F)F)c(F)c2)n2nc(CNC(=O)CCN3CCCCC3)cc2N1` (single isomer, unassigned) [Example 138B, 7-(3-Fluoro-4-(trifluoromethyl)phenyl)-N-(isoquinolin-6-yl)-5-methyl-2-((3-(piperidin-1-yl)propanamido)methyl)-4,7-dihydropyrazolo[1,5-a]pyrimidine-6-carboxamide], the Ki on Rho kinase 1 and at Rho kinase 2 was > 500 nM in each case.
Take `CC1=C(C(=O)Nc2ccc3cnccc3c2)C(c2ccc(C(F)(F)F)c(F)c2)n2nc(CN(C)CC3CCN(C)CC3)cc2N1` (single isomer, unassigned) [Example 104B, 7-(3-fluoro-4-(trifluoromethyl)phenyl)-N-(isoquinolin-6-yl)-5-methyl-2-((methyl((1-methylpiperidin-4-yl)methyl)amino)methyl)-4,7-dihydropyrazolo[1,5-a]pyrimidine-6-carboxamide]: the Ki is 50 to 500 nM at Rho kinase 1 and < 50 nM at Rho kinase 2.
With `CC1=C(C(=O)Nc2ccc3cnccc3c2)C(c2ccc(C(F)(F)F)c(F)c2)n2nc(C3CCN(C(=O)CCN4CCCCC4)CC3)cc2N1` (stereo not shown) [Example 135, 7-(3-fluoro-4-(trifluoromethyl)phenyl)-N-(isoquinolin-6-yl)-5-methyl-2-(1-(3-(piperidin-1-yl)propanoyl)piperidin-4-yl)-4,7-dihydropyrazolo[1,5-a]pyrimidine-6-carboxamide], the Ki at Rho kinase 1 and on Rho kinase 2 was < 50 nM each time.
Regarding `CC1=C(C(=O)Nc2ccc3[nH]ncc3c2)C(c2ccc(F)cc2)n2nc(C)cc2N1` (stereo not shown) [Example 28, 7-(4-fluorophenyl)-N-(1H-indazol-5-yl)-2,5-dimethyl-4,7-dihydropyrazolo[1,5-a]pyrimidine-6-carboxamide], the Ki at Rho kinase 1 and on Rho kinase 2 was < 50 nM throughout.
For `CC1=C(C(=O)Nc2ccc3cnccc3c2)C(c2ccc(C(F)(F)F)c(F)c2)n2nc(N)cc2N1` (single isomer, unassigned) [130B], the Ki at Rho kinase 1 and at Rho kinase 2 was < 50 nM each time.
`CC1=C(C(=O)Nc2ccc3cnccc3c2)C(c2ccc(Br)c(F)c2)n2nc(CO)cc2N1` (stereo not shown) [Example 55, 7-(4-bromo-3-fluorophenyl)-2-(hydroxymethyl)-N-(isoquinolin-6-yl)-5-methyl-4,7-dihydropyrazolo[1,5-a]pyrimidine-6-carboxamide]: the Ki at Rho kinase 1 and at Rho kinase 2 was < 50 nM each time.
For `CCOC(=O)c1cc2n(n1)C(c1ccc(C(F)(F)F)c(F)c1)C(C(=O)Nc1ccn3cnnc3c1)=C(C)N2` (stereo not shown) [Example 15, ethyl 6-([1,2,4]triazolo[4,3-a]pyridin-7-ylcarbamoyl)-7-(3-fluoro-4-(trifluoromethyl)phenyl)-5-methyl-4,7-dihydropyrazolo[1,5-a]pyrimidine-2-carboxylate], the Ki on Rho kinase 1 and on Rho kinase 2 was > 500 nM each time.
As for `CC1=C(C(=O)Nc2ccc3cnccc3c2)C(c2ccc(C(F)(F)F)c(F)c2)n2nc(C(=O)NCCN3CCCCC3)nc2N1` (single isomer, unassigned) [Example 129b, 7-(3-fluoro-4-(trifluoromethyl)phenyl)-N6-(isoquinolin-6-yl)-5-methyl-N2-(2-(piperidin-1-yl)ethyl)-4,7-dihydro-[1,2,4]triazolo[1,5-a]pyrimidine-2,6-dicarboxamide], the inhibition constant (Ki) on Rho kinase 1 was < 50 nM.
Regarding `CC1=C(C(=O)Nc2ccc3cnccc3c2)C(c2ccc(C(F)(F)F)c(F)c2)n2nc(CN3CC(CN(C)C)C3)cc2N1` (stereo not shown) [Example 106, 2-((3-((dimethylamino)methyl)azetidin-1-yl)methyl)-7-(3-fluoro-4-(trifluoromethyl)phenyl)-N-(isoquinolin-6-yl)-5-methyl-4,7-dihydropyrazolo[1,5-a]pyrimidine-6-carboxamide], the Ki at Rho kinase 1 and on Rho kinase 2 was < 50 nM throughout.
With `CC1=C(C(=O)Nc2ccc3cnccc3c2)C(c2ccc(C(F)(F)F)c(F)c2)n2nc(CNC(=O)CCN3CCCCC3)cc2N1` (single isomer, unassigned) [Example 138A, 7-(3-Fluoro-4-(trifluoromethyl)phenyl)-N-(isoquinolin-6-yl)-5-methyl-2-((3-(piperidin-1-yl)propanamido)methyl)-4,7-dihydropyrazolo[1,5-a]pyrimidine-6-carboxamide], the inhibition constant Ki at Rho kinase 1 and on Rho kinase 2 was < 50 nM each time.
For `CC1=C(C(=O)Nc2ccc3cnccc3c2)C(c2ccc(C(F)(F)F)c(F)c2F)n2nc(CN(C)C)cc2N1` (single isomer, unassigned) [Example 122a, 7-(2,3-difluoro-4-(trifluoromethyl)phenyl)-2-((dimethylamino)methyl)-N-(isoquinolin-6-yl)-5-methyl-4,7-dihydropyrazolo[1,5-a]pyrimidine-6-carboxamide], the inhibition constant (Ki) on Rho kinase 1 and at Rho kinase 2 was > 500 nM in each case.
In the case of `COCc1cc2n(n1)C(c1ccc(C(F)(F)F)cc1)C(C(=O)Nc1ccc3[nH]ncc3c1)=C(C)N2` (stereo not shown) [Example 35, N-(1H-indazol-5-yl)-2-(methoxymethyl)-5-methyl-7-(4-(trifluoromethyl)phenyl)-4,7-dihydropyrazolo[1,5-a]pyrimidine-6-carboxamide], the Ki on Rho kinase 1 and on Rho kinase 2 was < 50 nM each time.
As to `CC1=C(C(=O)Nc2ccc3cnccc3c2)C(c2ccc(C(F)(F)F)c(F)c2)n2nc(C(=O)N(C)CCN3CCCCC3)cc2N1` (single isomer, unassigned) [Example 78B, 7-(3-fluoro-4-(trifluoromethyl)phenyl)-N6-(isoquinolin-6-yl)-N2,5-dimethyl-N2-(2-(piperidin-1-yl)ethyl)-4,7-dihydropyrazolo[1,5-a]pyrimidine-2,6-dicarboxamide], the Ki on Rho kinase 1 and on Rho kinase 2 was < 50 nM each time.
Consider `CC1=C(C(=O)Nc2ccc3cnccc3c2)C(c2ccc(C(F)(F)F)c(F)c2)n2nc(NC(=O)CCN3CCCCC3)cc2N1` (single isomer, unassigned) [131B], for which the Ki on Rho kinase 2 is < 50 nM.
